Reference: US20090131302A1, “Transient receptor potential vanilloid 1 and uses thereof” (priority 2007, published 2009)
“Also recorded” adds a separate entry of the source.

How the values were obtained:
TRPV1 [1] = biological target: T1, TRPV1 (Rattus norvegicus, UniProt O35433); experiment: Neonatal colonic capsaicin infusion; sensitivity to colorectal distention at 7 weeks; assay type: in vivo; settings: 0.2 ml of 50 mg/ml into colon at P10, tested at 7 weeks, 20, 40, 60, 80 mm Hg, vs unmanipulated and vehicle
T1 construct: endogenous in cells; host or cells: living rats (neonatal and adult); DRG and spinal cord tissue for the expression work
Procedure: To treat neonatal rats with capsaicin, ten day old rat pups received an infusion of 0.2 mls of 50 mg/ml capsaicin or 0.2 mls vehicle: 10% ethanol, 10% Tween 20, 80% saline or were left unmanipulated. Visceral sensitivity and inflammatory parameters were measured in these rats between 8 and 12 weeks of age. […] After 4 weeks, rats were tested for sensitivity to colorectal distention.
Visceral hypersensitivity was measured by grading the response of rats to colorectal distention as previously described.^11 Briefly, under mild sedation with 1% Brevital (Eli Lily & Co Indianapolis, Ind.) 25 mg/kg i.p.), a flexible balloon (5 cm) constructed from a surgical glove finger attached to a tygon tubing was inserted 8 cm into the descending colon and rectum via the anus and held in place by taping the tubing to the tail. Rats were placed in small Lucite cubicles (20×8×8 cm) (Bioengineering Department, UTMB) and were allowed to adapt for 30 minutes. […] Pressure was measured using a sphygmomanometer connected to a pressure transducer. […] Behavioral responses to colorectal distention were measured by visual observation of the abdominal withdrawal reflex by blinded observer and the assignment of an AWR score as follows: 1=Normal behavior without response 2=Contraction of abdominal muscles; 3=Lifting of abdominal wall; 4=Body arching and lifting of pelvic structures. […]

p38 and ERK = settings: peripheral administration; cited from earlier work
TRPV1 [2] = settings: cited from earlier work
TRPV1 [3] = biological target: TRPV1 (Homo sapiens, UniProt Q8NER1); settings: cited from earlier work
TRPV1 [4] = biological target: T1, TRPV1; experiment: Neonatal TRPV1 antagonist pre-treatment before P10 colonic acetic acid; sensitivity to colorectal distention at 8 weeks; assay type: in vivo
Procedure: (§1) In the first experiment, 3 groups of 10 neonatal rats were used. While Group 1 received SB-366791, 1.3 mg/kg subcutaneously 30 minutes prior to colonic acetic acid administration. Group 2 received vehicle subcutaneously prior to colonic acetic acid administration, and Group 3 received vehicle prior to colonic saline administration. In the second experiment, 3 groups of 10 neonatal rats were used. All rats received a drug or vehicle subcutaneously 24 hours and 30 minutes prior to colonic acetic acid administration. Group 4 received SB-366791, 2.6 mg/kg, Group 5 received I-RTX, 2 mg/kg, and Group 6 received vehicle. For both experiments, at 8 weeks of age, EMG recordings and abdominal withdrawal reflex grades were simultaneously obtained in response to graded colorectal distention. To test the effect of TRPV1 inhibitors on adults, 2 groups of 10 rats were used: on post-natal day 10, Group 7 received colonic acetic acid, Group 8 received colonic saline. At 7 weeks of age, Groups 7 and 8 were split: half of each group received SB-366791, 1.3 mg/kg, and half vehicle, subcutaneously 30 minutes prior to colorectal distention. After one week of period, vehicle and drug groups were crossed-over and sensitivity to colorectal distention was measured again.
Ten days old rat pups received TRPV1 antagonist or vehicle subcutaneously 30 minutes prior to colon acetic acid infusion and were tested for sensitivity to colorectal distention at 8 weeks of age.
Thus, antagonism of the TRPV1 prior to neonatal administration of acetic acid attenuated the development of sensitivity to colorectal distention.

[5] = in vivo; cited from earlier work
TRPV1 [6] = biological target: T2, TRPV1 (Mus musculus, UniProt Q704Y3); settings: cited from earlier work
T2 construct: host or cells: colon and jejunal afferent fibre preparations

calcium channels = settings: at high concentrations; cited from earlier work
p38 = settings: models of inflammation and neuropathy; cited from earlier work
[7] = test system: AMPA or NMDA mediated hippocampal synaptic transmission; settings: cited from earlier work
TRPV1 [8] = biological target: T1, TRPV1; experiment: TRPV1 antagonism in adult rats neonatally treated with acetic acid or saline; graded colorectal distention; assay type: in vivo; settings: 1.3 mg/kg 30 minutes prior to CRD
Procedure: as §1
AWR scores of drug and vehicle treated rats as adults within each neonatal treatment group (P10 acetic acid or P10 saline) were compared at each distention pressure by Wilcoxon signed rank test.

TRPV1 [9] = settings: in vivo; cited from earlier work
[10] = test system: 50 receptors of various types; set-up: dose or concentration left out as unconfirmed; settings: cited from earlier work
[11] = test system: voltage-gated Ca++ currents or the hyperpolarization activated current in rat DRG neurons; settings: at 1 mM; cited from earlier work
MEK = settings: cited from earlier work
[12] = 1.3 mg/kg s.c. 30 minutes prior to P10 acetic acid, tested at 8 weeks, 40, 60 and 80 mm Hg, vs vehicle

Chain of TRPV1 (Homo sapiens, UniProt Q8NER1) (Q8NER1 whole entry, species assumed): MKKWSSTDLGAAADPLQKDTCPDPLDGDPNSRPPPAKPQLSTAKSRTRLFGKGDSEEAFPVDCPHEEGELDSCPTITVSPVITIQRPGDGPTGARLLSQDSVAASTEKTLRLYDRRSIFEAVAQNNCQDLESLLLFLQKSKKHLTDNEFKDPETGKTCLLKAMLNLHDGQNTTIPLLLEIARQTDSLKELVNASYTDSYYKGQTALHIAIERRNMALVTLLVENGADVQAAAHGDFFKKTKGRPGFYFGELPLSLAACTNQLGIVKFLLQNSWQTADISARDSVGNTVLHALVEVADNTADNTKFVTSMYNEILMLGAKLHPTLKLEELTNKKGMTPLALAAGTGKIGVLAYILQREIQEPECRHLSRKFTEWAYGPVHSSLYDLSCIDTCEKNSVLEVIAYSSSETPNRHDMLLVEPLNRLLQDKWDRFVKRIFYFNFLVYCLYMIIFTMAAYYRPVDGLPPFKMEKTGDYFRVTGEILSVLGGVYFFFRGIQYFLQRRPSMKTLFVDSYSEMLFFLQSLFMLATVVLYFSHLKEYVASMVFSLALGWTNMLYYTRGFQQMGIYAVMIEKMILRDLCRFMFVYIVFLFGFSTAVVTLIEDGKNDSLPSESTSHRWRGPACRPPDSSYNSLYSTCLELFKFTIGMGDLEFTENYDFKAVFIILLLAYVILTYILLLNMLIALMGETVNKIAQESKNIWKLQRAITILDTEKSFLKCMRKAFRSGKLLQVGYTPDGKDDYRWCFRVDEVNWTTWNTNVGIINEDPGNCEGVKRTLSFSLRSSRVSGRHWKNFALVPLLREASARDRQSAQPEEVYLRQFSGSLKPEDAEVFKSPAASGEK
T1 sequence (O35433 whole entry, the tested form may be a part): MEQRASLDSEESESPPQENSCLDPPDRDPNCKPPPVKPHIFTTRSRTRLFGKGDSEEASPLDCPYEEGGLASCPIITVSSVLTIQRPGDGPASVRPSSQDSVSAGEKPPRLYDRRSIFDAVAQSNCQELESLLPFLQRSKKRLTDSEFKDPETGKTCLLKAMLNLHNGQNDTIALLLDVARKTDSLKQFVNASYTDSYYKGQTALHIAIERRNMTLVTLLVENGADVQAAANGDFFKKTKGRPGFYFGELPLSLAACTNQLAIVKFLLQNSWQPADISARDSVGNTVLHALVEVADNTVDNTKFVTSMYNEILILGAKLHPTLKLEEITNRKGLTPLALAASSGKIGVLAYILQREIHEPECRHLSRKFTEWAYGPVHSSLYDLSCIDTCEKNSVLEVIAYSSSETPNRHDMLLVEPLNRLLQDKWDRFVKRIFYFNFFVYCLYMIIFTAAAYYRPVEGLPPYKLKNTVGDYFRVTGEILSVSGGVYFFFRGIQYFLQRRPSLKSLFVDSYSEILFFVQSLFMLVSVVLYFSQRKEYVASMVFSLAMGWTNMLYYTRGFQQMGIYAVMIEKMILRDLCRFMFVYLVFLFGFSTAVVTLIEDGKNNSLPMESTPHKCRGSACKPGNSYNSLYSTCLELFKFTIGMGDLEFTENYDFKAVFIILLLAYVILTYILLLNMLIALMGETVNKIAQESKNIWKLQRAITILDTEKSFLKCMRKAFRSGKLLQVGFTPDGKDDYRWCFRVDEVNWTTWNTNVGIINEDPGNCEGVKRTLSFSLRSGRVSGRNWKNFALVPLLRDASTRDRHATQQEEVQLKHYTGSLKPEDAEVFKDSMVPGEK
T2 sequence (Q704Y3 whole entry): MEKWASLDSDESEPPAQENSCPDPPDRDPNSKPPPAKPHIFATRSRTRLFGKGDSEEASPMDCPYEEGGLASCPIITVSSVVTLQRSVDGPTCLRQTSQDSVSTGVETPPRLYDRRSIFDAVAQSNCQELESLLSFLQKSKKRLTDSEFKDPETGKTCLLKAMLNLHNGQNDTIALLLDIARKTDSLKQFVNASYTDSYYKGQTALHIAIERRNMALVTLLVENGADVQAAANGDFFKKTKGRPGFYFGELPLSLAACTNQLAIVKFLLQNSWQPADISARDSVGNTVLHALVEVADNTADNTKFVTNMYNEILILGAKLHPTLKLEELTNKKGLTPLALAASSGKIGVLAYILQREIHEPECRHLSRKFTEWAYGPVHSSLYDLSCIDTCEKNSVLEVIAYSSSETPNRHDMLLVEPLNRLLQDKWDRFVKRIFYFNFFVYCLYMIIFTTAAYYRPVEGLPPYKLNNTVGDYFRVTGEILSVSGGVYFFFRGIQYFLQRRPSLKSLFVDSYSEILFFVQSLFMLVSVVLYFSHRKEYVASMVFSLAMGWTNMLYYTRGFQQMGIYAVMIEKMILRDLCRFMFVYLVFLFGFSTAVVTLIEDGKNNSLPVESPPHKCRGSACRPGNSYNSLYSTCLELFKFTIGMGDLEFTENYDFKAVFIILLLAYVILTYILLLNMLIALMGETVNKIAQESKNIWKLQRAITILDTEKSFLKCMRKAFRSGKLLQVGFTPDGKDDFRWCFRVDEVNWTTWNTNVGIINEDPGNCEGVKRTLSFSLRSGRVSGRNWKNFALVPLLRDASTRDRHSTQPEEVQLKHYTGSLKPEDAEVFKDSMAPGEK

## COc1cc(CNC(=O)CCCC/C=C/C(C)C)ccc1O [capsaicin]
TRPV1 [1]
  sensitivity to colorectal distention: increased sensitivity
TRPV1 [1]; listed as CAP
  sensitivity to colorectal distention: significantly more sensitive to colorectal distention
p38 and ERK
  p38 and ERK activation in dorsal root ganglia neurons: activates p38 and ERK

## C=C(C)[C@]12C[C@@H](C)[C@@]34O[C@](Cc5ccccc5)(O[C@@H]1[C@@H]3C=C(COC(=O)Cc1cc(I)c(O)c(OC)c1)C[C@]1(O)C(=O)C(C)=C[C@@H]41)O2 [I-RTX, 5′Iodoresiniferatoxin]
TRPV1 [2]
  blocking TRPV1-mediated effects in several animal models in vivo: effective in blocking TRPV1-mediated effects
TRPV1 [3]
  potency and selectivity compared with capsezapine: more potent and selective antagonists
TRPV1 [4]; 2 mg/kg s.c. 24 hours and 30 minutes prior to P10 acetic acid, 8 weeks, 10, 20 and 40 mm Hg
  sensitivity to colorectal distention by AWR grade: reduced sensitivity
TRPV1 [4]; 2 mg/kg s.c. 24 hours and 30 minutes prior to P10 acetic acid, 8 weeks, 10, 20 and 40 mm Hg, listed as 1-RTX
  sensitivity to colorectal distention by AWR grade: significant decreased sensitivity
TRPV1 [4]; 2 mg/kg s.c. 24 hours and 30 minutes prior to P10 acetic acid, 8 weeks, 20, 40, 60 and 80 mm Hg
  sensitivity to colorectal distention by EMG: reduced sensitivity
TRPV1 [4]; 2 mg/kg s.c. 24 hours and 30 minutes prior to P10 acetic acid, 8 weeks, 20, 40, 60 and 80 mm Hg, listed as 1-RTX
  sensitivity to colorectal distention by EMG: significant decreased sensitivity

## Oc1cc2c(cc1O)CN(C(=S)NCCc1ccc(Cl)cc1)CCC2 [capsazepine]
[5]
  pharmacokinetic properties: poor pharmacokinetic properties
TRPV1 [6]
  colon afferent fiber responses to stretch: inhibited
  jejunal afferent responses to acid: inhibited
Calcium channels
  calcium channel block: blocks calcium channels at high concentrations

## C[S+]([O-])c1ccc(-c2nc(-c3ccncc3)c(-c3ccc(F)cc3)[nH]2)cc1 (stereo not drawn) [SB-203580]
p38
  development of behavioral hypersensitivity: blocks the development of behavioral hypersensitivity

## COc1cccc(NC(=O)C=Cc2ccc(Cl)cc2)c1 [SB-366791, N-(3-Methoxyphenyl)-4-chlorocinnamide]
[7]
  effects on AMPA or NMDA mediated hippocampal synaptic transmission: no effects
TRPV1 [3]
  acid-mediated activation: blocks acid-mediated activation
  potency and selectivity compared with capsezapine: more potent and selective antagonists
TRPV1 [3]; competitive antagonist of capsaicin
  Ki: 18 nM
TRPV1 [8]; 10-80 mm Hg
  AWR response to colorectal distention, P10 saline treated adult rats: no significant effect
TRPV1 [8]; 10 and 80 mm Hg
  AWR response to colorectal distention, P10 acetic acid treated adult rats: No significant differences
TRPV1 [8]; 20 mm Hg
  AWR response to colorectal distention, P10 acetic acid treated adult rats: trend towards significance
TRPV1 [8]; 40 and 60 mm Hg, vs vehicle
  AWR response to colorectal distention, P10 acetic acid treated adult rats: reduced sensitivity to CRD
TRPV1 [8]; 40 and 60 mm Hg, vs vehicle, listed as SB-366,791
  AWR response to colorectal distention, P10 acetic acid treated adult rats: significant decline
TRPV1 [4]; [12]
  EMG activity in response to colorectal distention: significantly less
  sensitivity to colorectal distention by AWR grade: significant decreases in sensitivity to colorectal distention
TRPV1 [4]; 2.6 mg/kg s.c. 24 hours and 30 minutes prior to P10 acetic acid, 8 weeks, 10, 20, 40 and 60 mm Hg
  sensitivity to colorectal distention by AWR grade: reduced sensitivity; also recorded: significantly decreased sensitivity
TRPV1 [4]; 2.6 mg/kg s.c. 24 hours and 30 minutes prior to P10 acetic acid, 8 weeks, 20, 40 and 60 mm Hg
  sensitivity to colorectal distention by EMG: reduced sensitivity; also recorded: significantly decreased sensitivity
TRPV1 [9]
  capsaicin effects on thermoregulation: block capsaicin effects on thermoregulation
[10]
  effect in in vitro binding assays against 50 receptors of various types: little or no effect
[11]
  effect on hyperpolarization activated current: little or no effect
  effect on voltage-gated Ca++ currents: little or no effect

## N#CC(=C(/N)Sc1ccccc1N)/C(C#N)=C(\N)Sc1ccccc1N [U0126]
MEK; in vivo
  epinephrine induced mechanical hypersensitivity: reduces epinephrine induced mechanical hypersensitivity
MEK; models of inflammation and neuropathic pain
  thermal and mechanical hypersensitivity: attenuates thermal and mechanical hypersensitivity
